Assay results from patent US20250042925A1, “Improved Compositions and Methods for Targeting Mitochondria in Cancer Cells” (The Medical College of Wisconsin, Inc., priority 2021, published 2025).

Assays:
[1] = test system: KPC1242, Panc-1, AsPC-1, HCT-116, MDA-MB-231, OVCAR-4, OVCAR-8 cancer cell lines; experiment: Cell growth (IncuCyte confluence) in cancer cell lines; type: cell-based, murine, human; settings: for cell confluency: increasing concentrations 0.1 μM-10 μM, each of the cancer cells
Source text: Murine pancreatic cancer cells KPC1242 (David Tuveson, Cold Spring Harbor), human pancreatic cancer cells, Panc-1 (ATCC: CRL-1469), human breast cancer cells MDA-MB-231 (ATCC: CRM-HTB-26), and human pancreatic stellate cells HPSC (Rosa F. Hwang, MD Anderson cancer) were all cultured in DMEM (Gibco ThermoFisher Scientific, Waltham, MA, Cat #11965084) containing 10% v/v fetal bovine serum (Omega Scientific, Inc., Tarzana, CA, Cat #FB-12). Human pancreatic cancer cells AsPC-1 (ATCC: CRL-1682), human ovarian cancer cells OVCAR-8 (NIH: CVCL-1629), and human ovarian cancer cells OVCAR-4 (NIH: CVCL-1627) were all cultured in DMEM (Gibco, Cat #22400089) containing 10% v/v fetal bovine serum (Omega Scientific). Human colon cancer cells HCT-116 (ATCC: CCL-247) were cultured in McCoy's 5A Modified Medium (Gibco, Cat #16600082) containing 10% v/v fetal bovine serum (Omega Scientific). Human pancreatic duct epithelial cells HPNE (ATCC: CRL-4023) were cultured in DMEM and 200 mM L-Glutamine and 7.5% w/v NaCO3 further supplemented with 15% v/v fetal bovine serum, M3-Base A (Incell, San Antonio, TX), 1M D-Glucose (Gibco Cat #J60067.EQE), 100 μg/mL human EGF (Gibco Cat #PHG0313) and 10 mg/mL puromycin (ThermoFisher, Cat #A1113802).

[2] = test system: mitochondrial respiratory complex I; experiment: Complex I derived oxygen consumption in permeabilized cells; type: cell-based, murine; settings: KPC1242 cell line, 24-hour treatment
Experimental: Cells were plated to Seahorse XF96 cell culture microplates at 20,000 cells/well. Stock compounds in DMSO were diluted in RPMI medium to a final concentration in […] volume, incubated at 37° C. for 24 hours, centrifuged at 200×g for 2 minutes, and conditioned medium removed and replaced with serum-free RPMI […]. Oxygen consumption (OCR) and extracellular flux (ECAR) were measured after injections of oligomycin (1 mg/mL), dinitrophenol […], rotenone […], and antimycin A […]. Analysis was performed by normalizing OCR and ECAR readouts to vehicle controls. Complex I and II activity were analyzed after permeabilization of the cells.

KPC1242 cells = experiment: Luminescent ATP detection assay; type: cell-based, murine; settings: 24 hours; 0.7 μM MMe or 3 μM pCF3-MMe
Experimental: The functional consequence of inhibiting mitochondria complex I and subsequently OXPHOS is a reduction of overall ATP levels in the cell. The ability of MMe to reduce ATP levels was previously reported in numerous cancer cell types. Thus, further studies were conducted to explore if pCF3-MMe retained similar properties. […] Cells, including cancer cells, must maintain a high ATP:ADP ratio to maintain cellular functions and survival. Moreover, AMP levels rise whenever the ATP:ADP ratio decreases, and an increase in the AMP:ATP ratio signals an energetic crisis in the cell. This energetic crisis is sensed by the master regulator AMP-Activated Protein Kinase (AMPK), which is activated through Thr172 phosphorylation and controls many signaling pathways ranging from energy metabolism to cellular growth. Therefore, further studies were conducted to evaluate if the reduction in ATP levels induced by MMe or pCF3-MMe is sufficient to activate AMPK.
Intracellular ATP levels were determined in cell lysates using a Luminescent ATP Detection Assay Kit per the manufacturer's directions (Abcam, Cambridge, UK, Cat #ab113849).

C57BL/6J mice = experiment: Tolerability in non-tumor-bearing mice; type: in vivo; settings: for tolerability of repeated injection: daily for 5 consecutive days, 25 μg/mouse to 1 mg/mouse
Experimental: FIGS. 6A-6I show pCF3-MMe inhibits tumor growth with enhanced biosafety relative to MMe. C57BL/6J mice were treated with 1 mg MMe, 1 mg pCF3-MMe, 1 mg MMe, 250 μg MMe, 100 μg MMe, 50 μg MMe, or 25 μg MMe for 6 hours (FIG. 6A) or 5 days (FIG. 6D). Kaplan-Meier survival curve of mice treated for 6 hours (FIG. 6B) or 5 days […], n=3-5. Numbers of mice surviving over time after a single injection (FIG. 6C) or 5 repeated doses (FIG. 6F). Significance was determined using a Mantel-Cox test (*, p<0.05; **, p<0.01). KPC1242 murine pancreatic cancer engrafted mice were treated with 1 mg pCF3-MMe or vehicle 5 days on and 2 days off (FIG. 6G). Tumors isolated from vehicle and treated mice were pictured (FIG. 6H). Tumor volume was measured ex vivo from vehicle and pCF3-MMe-treated mice (FIG. 6I). Values are mean±SD. Significant differences were determined by Student's t-test (*, p<0.05).
With the ability to detect pCF3-MMe in vitro and in vivo in hand, along with anti-tumor properties and decreased toxicity towards non-transformed cells in culture, we next compared the tolerability of pCF3-MMe in mice. Non-tumor-bearing mice received an intraperitoneal injection with decreasing amounts (1 mg, 250 μg, 100 μg, 50 μg, or 25 μg) of unsubstituted MMe or pCF3-MMe. […] […].
Given the strong safety shown from a single injection, further studies were conducted to determine if mice tolerated repeated injection using our published treatment schedule by injecting non-tumor-bearing mice daily for 5 consecutive days with doses ranging from as little as 25 μg/mouse to as much as 1 mg/mouse […] (FIG. 6D). […] Since 1 mg/mouse pCF3-MMe was well tolerated in tumor-free animals, further studies were conducted to test if pCF3-MMe could inhibit tumor growth in vivo. Mice were implanted with murine cancer cells and injected 17 days after engraftment with 1 mg pCF3-MMe (FIG. 6G). […] Taken together, trifluoromethylation of TPP^+ improves the reproducible detection, quantitative measurement, and safety profile of TPP^+-conjugated compounds while retaining potent anti-tumor effects in vivo.

SMILES | efficacy compared to MMe in several types of cancer [1] | cell confluency [1] | complex I derived OCR [2] | levels of ATP (KPC1242 cells) | tolerability of repeated injection (C57BL/6J mice) | mice surviving (C57BL/6J mice; single intraperitoneal injection of 1 mg) | tolerability after a single injection (C57BL/6J mice; single intraperitoneal injection, MMe 250 μg or 1 mg, metformin 1 mg)
N=C(N)NC(=N)NCCCCCCCCCC[P+](c1ccc(C(F)(F)F)cc1)(c1ccc(C(F)(F)F)cc1)c1ccc(C(F)(F)F)cc1.[Br-] [pCF3-MMe, (10-(3-carbamimidoylguanidino)decyl)tris(4-(trifluoromethyl)phenyl)phosphonium bromide] | only a slight change in efficacy | decreased in a concentration-dependent manner | decreased complex I derived OCR | significantly reduced | tolerated a 1 mg dose | 100% | –
N=C(N)NC(=N)NCCCCCCCCCC[P+](c1ccccc1)(c1ccccc1)c1ccccc1.[Br-] [MMe, 10-[(carbamimidamidomethanimidoyl)amino]decyl-triphenylphosphonium bromide, reference compound] | – | decreased in a concentration-dependent manner | decreased complex I derived OCR | significantly reduced | succumbed to 4-fold lower doses | – | significant and rapid mortality
